Values after ≈ are worked out from the molar mass of the structure shown. Read-outs that look alike come from different tables or passages of the source.
Tests used:
K562MRP = experiment: MTT test on K562MRP, homoharringtonine-resistant subline of K562; assay type: cell-based; conditions: K562MRP subline resistant to 50 ng/mL homoharringtonine, same method as K562
Description: (§1) Structural analogues of harringtonines described in this invention were tested on K562 cell line, derived from chronic myeloid leukemia cells in blastic transformation (bcr-abl positive). The cell line was purchased from ATCC (American Tissue Culture Collection) and grown in RPMI medium supplemented with 10% heat-inactivated fetal calf serum, 2 mmol/L glutamine, […] penicillin and […] streptomycin. All tested products were initially dissolved in […] (pH=2), supplemented with ultrasound treatment during 1 h. Working concentrations were made by dilution in culture medium (pH around 7). Cells in exponential growth phase were placed into 96-microwell plates in concentration 3×10^4/mL (total volume 200 μL/well) and incubated with drugs for 72 h at 37° C. in 5% CO2 humidified atmosphere. Following incubation, 2 μL of MTT solution (Sigma, St. Louis, Mo.) was added to each well. During the following 6 h of incubation at 37° C., the purple formazan product was formed by conversion of the yellow MTT salt in the mitochondria of the viable cells. The resulting precipitate was dissolved in DMSO and the amount of converted MTT was quantified in an ELISA reader (MR 5000, Dynatech). Each product was tested in triplicate (3×8 wells). Every test contained at least one plate with HHT as control, added in the same concentration as the tested products.

K562 cell line = experiment: MTT test of structural analogues of harringtonines on K562 cell line; assay type: cell-based
Description: as §1

[1] = Homo sapiens, K562 cell line, 72 h incubation, MTT, read-out: IC50

SMILES | IC50 (K562 cell line; Homo sapiens, K562, 72 h) [µg/mL] | other results
CC=CC=CCOC(=O)C[C@](O)(CCCC(C)(C)O)C(=O)O[C@@H]1C(OC)=C[C@]23CCCN2CCc2cc4c(cc2[C@H]13)OCO4 [Example 43, (2′R)-4′-(hexa-2,4-dienyl)-4′-demethyl-homoharringtonine] |  | IC50 (K562MRP): 0.016 µg/mL (≈ 0.0262 µM); IC50 (K562 cell line; K562 cell line, 72 h incubation, MTT): 0.0035 µg/mL (≈ 0.00572 µM)
COC1=C[C@@]23CCCN2CCc2cc4c(cc2[C@@H]3C1OC(=O)[C@@](O)(CCCC(C)(C)O)CC(=O)OCc1ccco1)OCO4 (stereo partly drawn) [Example 83, (2′R)-4′-furfuryl-4′-demethyl-homoharringtonine] | 0.003 (≈ 0.0049 µM) | 
CCCCCCOC(=O)C[C@](O)(CCC(C)C)C(=O)OC1C(OC)=C[C@@]23CCCN2CCc2cc4c(cc2[C@H]13)OCO4 (stereo partly shown) [Example 84, (2′ R)-4′-hexanyloxy-4′-demethyldeoxyharringtonine] | 0.007 (≈ 0.012 µM) | 
COC1=C[C@@]23CCCN2CCc2cc4c(cc2[C@@H]3C1OC(=O)[C@@](O)(CCCC(C)(C)O)CC(=O)OCc1ccc([N+](=O)[O-])cc1)OCO4 (stereo partly drawn) [Example 85, (2′R)-4′-p-nitrobenzyloxy-4′-demethyl-homoharringtonine] | 0.018 (≈ 0.027 µM) | 
COC1=C[C@@]23CCCN2CCc2cc4c(cc2[C@@H]3C1OC(=O)[C@@](O)(CCCC(C)(C)O)CC(=O)OCc1ccc(OC)cc1)OCO4 (stereo partly drawn) [Example 86, (2′R)-4′-p-methoxybenzyloxy-4′-demethyl-homoharringtonine] | 0.02 (≈ 0.0307 µM) | 
[2H]C([2H])OC(=O)C[C@](O)(CCCC(C)(C)O)C(=O)OC1C(OC)=C[C@@]23CCCN2CCc2cc4c(cc2[C@H]13)OCO4 (stereo partly drawn) [Example 87, (2′R)-(4′-^2H2)homoharringtonine] |  | IC50 (K562 cell line; [1]): 0.021 µg/mL (≈ 0.0383 µM)
COC1=C[C@@]23CCCN2CCc2cc4c(cc2[C@@H]3C1OC(=O)[C@@](O)(CCCC(C)(C)O)CC(=O)OCc1ccccc1OC)OCO4 (stereo partly drawn) [Example 90, (2′R)-4′-o-methoxybenzyloxy-4′-demethyl-homoharringtonine] | 0.027 (≈ 0.0414 µM) | 
COC(=O)C[C@](O)(CCC(C)(C)O)C(=O)O[C@@H]1C(OC)=C[C@]23CCCN2CCc2cc4c(cc2[C@H]13)OCO4 [HARRINGTONINE (HHT), harringtonine, reference compound] | 0.03 (≈ 0.0564 µM) | 
COC(=O)C[C@](O)(CCCC(C)(C)O)C(=O)O[C@@H]1C(OC)=C[C@]23CCCN2CCc2cc4c(cc2[C@H]13)OCO4 [HOMOHARRINGTONINE, homoharringtonine, reference compound] |  | IC50 (K562 cell line; [1]): 0.014 µg/mL (≈ 0.0257 µM)

From patent US7285546B2, “Cephalotaxanes, their method of preparation and their use in treatment of cancers, leukemias, parasites including those resistant to usual chemotherapeutic agents and as reversal agents” (Stragen Pharma S.A., priority 2000, dated 2007)
